Source: patent US7087762B2, “Long-lasting antimicrobial reaction product of allantoin and formaldehyde containing a low level of free formaldehyde” (ISP Investments Inc., priority 2002, dated 2006)

Assays:
BC (B. cepacia) = assay: Preservative challenge test, screening emulsion; type: cell-based, Burkholderia cepacia
Protocol: (§1) A typical cosmetic emulsion was prepared for microbiological challenge testing and predetermined admixtures of a methylol compound and IPBC were added at various use levels. The emulsion thus prepared had the following composition:
To prepare the emulsion, Phases A and B were heated separately to 75°–80° C. Phase A then was added to Phase B with mixing. The mixture then was cooled to 55°–60° C. At this point the desired amount of the preservative admixture was added and the product was cooled to 50° C. while stirring. The citric acid solution then was added to adjust the pH and the mixture was stirred until a temperature of 30° C. was reached.
(§2) The challenge tests were carried out using the following microorganisms: SA, ECOLI, PSA, PC, AN and CAN, in this manner. 50 g aliquots of the test emulsion containing various amounts of the preservative admixture were inoculated with approximately 10^7–10^8 of the challenge organisms. The test samples then were stirred to disperse the challenge inoculum. The samples were incubated and assayed at 48 hours, 7, 14, 21 and 28 days. The assays were performed on 1 g of the test sample by serially diluting 10^1 to 10^6 of the original concentration. The plating medium for bacteria was Letheen agar and for fungi it was low pH Mycophil agar with Tween 20. Each plated sample was incubated for 48 hours at 37° C. for bacteria, 5 days at 25° C. for mold, and 3 days at 25° C. for fungi. After incubation, readings of the number of colonies per milliliter (cfu/ml) were made. At 21 days the test product was reinoculated with half of the original inoculum.

[1] = tested on: EC (ECOLI, Escherichia coli); assay: Preservative challenge test, nonionic emulsion; type: cell-based
Protocol: as §1, §2

O=C1C(N(CO)C(=O)NCO)N(CO)C(=O)N1CO (stereo not drawn) [Germall II]
<10 cfu/ml: cfu/ml, 48 hrs (BC (B. cepacia); 250 ppm) | cfu/ml, 7 days (BC (B. cepacia); 250 ppm) | cfu/ml, 14 days (BC (B. cepacia); 250 ppm) | cfu/ml, 21 days (BC (B. cepacia); 250 ppm) | cfu/ml, 28 days (BC (B. cepacia); 250 ppm) | cfu/ml, 48 hrs (BC (B. cepacia); 500 ppm) | cfu/ml, 7 days (BC (B. cepacia); 500 ppm) | cfu/ml, 14 days (BC (B. cepacia); 500 ppm) | cfu/ml, 21 days (BC (B. cepacia); 500 ppm) | cfu/ml, 28 days (BC (B. cepacia); 500 ppm) | cfu/ml, 48 hrs (BC (B. cepacia); 1000 ppm) | cfu/ml, 7 days (BC (B. cepacia); 1000 ppm) | cfu/ml, 14 days (BC (B. cepacia); 1000 ppm) | cfu/ml, 21 days (BC (B. cepacia); 1000 ppm) | cfu/ml, 28 days (BC (B. cepacia); 1000 ppm) | cfu/ml, 48 hrs (BC (B. cepacia); 2000 ppm) | cfu/ml, 7 days (BC (B. cepacia); 2000 ppm) | cfu/ml, 14 days (BC (B. cepacia); 2000 ppm) | cfu/ml, 21 days (BC (B. cepacia); 2000 ppm) | cfu/ml, 28 days (BC (B. cepacia); 2000 ppm) | cfu/ml, 48 hrs ([1]; 2000 ppm) | cfu/ml, 7 days ([1]; 2000 ppm) | cfu/ml, 14 days ([1]; 2000 ppm) | cfu/ml, 21 days ([1]; 2000 ppm) | cfu/ml, 28 days ([1]; 2000 ppm) | cfu/ml, 48 hrs ([1]; 4000 ppm) | cfu/ml, 7 days ([1]; 4000 ppm) | cfu/ml, 14 days ([1]; 4000 ppm) | cfu/ml, 21 days ([1]; 4000 ppm) | cfu/ml, 28 days ([1]; 4000 ppm)
